Each structure is given as a SMILES string.

Data set [1] can be described thus: Action to raise the urinary excretion of calcium (2), intravenous administration. In kind it is in vivo, rat. To be noted: male SD rats, intravenous 22.4 nmol/kg. The method, then:
The compound of the present invention mentioned in Examples 3 or 8, or maxacalcitol (22.4 nmol/kg) was subjected to an intravenous administration to male rats (7 weeks of age) of the SD strain. A physiological saline containing 0.1% of Triton X 100 was administered to a control group. Calcium concentration in urine collected during 24 hours after the administration was measured and urinary excretion of calcium ([calcium concentration in urine]×[amount of urine]) and ratio of urinary excretion of calcium based on the control group ([calcium amount in urine upon administration of the compound to be tested]/[calcium amount in urine in the control group]) were calculated.

Data set [2] is described as follows: Action to raise the urinary excretion of calcium (1), repeated percutaneous administration. As to conditions: male SD rats, percutaneous 0.33, 3.3 and 33 μg/kg/day once daily for three days, urine collected every 24 hours, compared with control. In kind it is in vivo, rat. How it is done:
Open triangles show a control; open squares show the case where 0.33 μg/kg of the compound of Example 1 was administered; open rhombuses show the case where 3.3 μg/kg of the compound of Example 1 was administered; open circles show the case where 33 μg/kg of the compound of Example 1 was administered; black squares show the case where 0.33 μg/kg of maxacalcitol was administered; black rhombuses show the case where 3.3 μg/kg of maxacalcitol was administered; and black circles show the case where 33 μg/kg of maxacalcitol was administered.
A solution of the compound of the present invention mentioned in Example 1 or maxacalcitol in ethanol containing 0.3% of DMSO was repeatedly subjected to a percutaneous administration (0.33, 3.3 and 33 μg/200 μl/kg/day) for three days once daily onto the back of male rats (7 weeks of age) of the SD strain. An ethanol solution containing 0.3% of DMSO was administered to a control group. Calcium concentration in urine collected every 24 hours after administration on each day was measured and multiplied by the amount of urine to calculate the urinary excretion of calcium.

Data set [3] has as its system human acute myelogenous leukemia cell line HL-60. In words: Ability to induce differentiation of HL-60 cells (oxygen radical production after phorbol ester stimulation, WST-1). In kind it is cell-based. To be noted: Homo sapiens, 72 hours incubation, then WST-1 and phorbol 12,13-didecanoate for 4 hours, absorbance at 450, read-out: EC50 (50%-maximal effect concentration), induction of HL-60 differentiation. The source says:
It has been known that human acute myelogenous leukemia cell line HL-60 is differentiated into a neutrophil-like cell by active form of vitamin D. Thus, the cells after the differentiation begin to express a surface marker such as CD11 and CD32 and, at the same time, they produce oxygen radical by stimulation with a phorbol ester. In this test, the above-mentioned property was utilized to assess an ability to induce the differentiation of HL-60 cell of the compounds of the present invention mentioned in the Examples and maxacalcitol using as an indicator the amount of oxygen radical produced by stimulation with a phorbol ester whereby a vitamin D3 activity was compared and investigated. When commercially available reagents and kits were used, they were used according to the indications attached thereto.
(Procedure) HL-60 cells (supplied from ATCC) were seeded on a 96-well plate at 5×10^3 cells/100 μL/well and a test compound in two-fold dilution series from 10^−7 M was added to the second to the twelfth rows (maximum concentration: the second row). The first row was used for blank. Maxacalcitol was added to lines A and B and the compound of the present invention was added to lines C and D. After incubation for 72 hours under a moisturized condition in the presence of 5% CO2 at 37° C. using a CO2 incubator, 101 μL of PBS containing 50 mM WST-1 (manufactured by Takara Bio) and 10 μM phorbol 12,13-didecanoate (manufactured by Sigma) were added to each well followed by incubating for 4 hours more. Absorbance (reference wavelength: 655 nM) at 450 nM of a WST-1 formazan dye generated by conversion from WST-1 by oxygen radical produced from the differentiated HL-60 cells was measured by a Benchmark microplate reader (manufactured by BioRad). An absorbance meter control software MPM 3 (manufactured by BioRad) was used and, from a concentration-absorbance curve, the 50%-maximal effect concentration (hereinafter, referred to as “EC50”) of each was determined by a logistic curve regression.
On the technique in general: Tetrazolium assays rely on reduction of a dye to a coloured formazan, in cell work by metabolically active cells.

A short description of data set [4]: Action to raise calcium concentration in serum, repeated percutaneous administration. In kind it is in vivo, rat. As to conditions: male SD rats, percutaneous 33 μg/200 μL/kg/day once daily for seven days, blood 24 hours after final administration. How it is done: A solution of the compound of the present invention mentioned in Example 1 or maxacalcitol in ethanol containing 0.3% of DMSO was repeatedly subjected to a percutaneous administration (33 μg/200 μL/kg/day) for seven days once daily onto the back of male rats (7 weeks of age) of the SD strain. An ethanol solution containing 0.3% of DMSO was administered to a control group. At 24 hours after the final administration, blood was collected and calcium concentration in serum was measured.

The nature of data set [5]: Metabolic rate in human liver microsome. To be noted: pooled human liver microsome, 1 mg/mL protein, NADPH production system, pH 7.4, 37° C., HPLC. In kind it is in vitro ADME. The method, then:
Metabolic rates of the compounds of the present invention mentioned in Examples and maxacalcitol in human liver microsome were compared and investigated.
As to the pooled human liver microsome (HHM-0323), those manufactured by Tissue Transformation Technologies were used. A 0.25M potassium phosphate buffer (pH 7.4) (200 μL), 5 μL of a 250 μM solution of each compound to be tested in DMSO, 50 μL of an NADPH production system (where 20 mg of (β-NADP^+, 70 mg of glucose-6-phosphate, 40 units of glucose-6-phosphate dehydrogenase and 20 mg of magnesium chloride were dissolved in 1 mL of distilled water) and 220 μL of distilled water were added to a microtube and the mixture was subjected to a preincubation for 5 minutes at 37° C. Reaction was started by addition of 25 μL of human liver microsome (final concentration of protein: 1 mg/mL). Incubation was performed for 2, 10, 30 or 60 minutes and the reaction was stopped by addition of 500 μL of acetonitrile. After centrifugation at 13,000 rpm for 5 minutes, each test compound in the supernatant (25 μL) was measured by an HPLC under the following conditions.
Inertsil ODS-3 (4.6×150 mm; GL Science) was used as a column. With regard to mobile phase, a solution A (acetonitrile/0.1% aqueous solution of ammonium acetate=10/90) and a solution B (acetonitrile/0.1% aqueous solution of ammonium acetate=90/10) were used under the linear gradient conditions mentioned in Table 4. Column temperature, flow rate and wavelength for detection were set at 40° C., 1.0 mL/min. and UV 270 nm, respectively.
From the result of measurement by the above-mentioned HPLC, metabolic rates of the test compounds were calculated.
Background: Liver microsomes are a subcellular fraction often used to study metabolism.

With `C=C1/C(=C\C=C2/CCC[C@]3(C)[C@@H]([C@H](C)OCCC(C)(C)O)CC[C@@H]23)C[C@@H](O)C[C@@H]1O` [Maxacalcitol, (1S,3R,20S)-20-(3-hydroxy-3-methylbutyl-oxy)-9,10-secopregna-5Z,7E,10(19)-trien-1,3-diol, reference compound], the “Urinary excretion of calcium” value in data set [1] (urine collected during 24 hours after administration) amounted to 1.5 mg. Moreover, in data set [1] (urine collected during 24 hours, relative to control group), the “Ratio of urinary excretion of calcium (to Control)” value is 211%. Further, the “Urinary excretion of calcium (FIG. 1)” value in data set [2] is recorded as “increased in a dose-dependent manner”. The EC50 in data set [3] came out at 5.4 nM. For the same compound, in data set [4], the “Calcium Concentration in Serum” value stood at 15.0 mg/dL. The “Metabolic Rate” value in data set [5] was determined as 10 pmol/min/mg.

Values taken from patent US20100130454A1, “9,10-SECOPREGNANE DERIVATIVES AND MEDICINE” (NIPPON SHINYAKU CO., LTD., priority 2004, published 2010).
